Patent US20140081017A1, “Histone Deacetylase Inhibitors for Enhancing Activity of Antifungal Agents” (METHYLGENE INC., priority 2012, published 2014)
In brackets after ≈: the same amount, converted by molar mass. Where two headings read alike, the source gives them in different places.

What was measured:
Candida albicans = assay: Minimal Inhibitory Concentration (MIC) assay, broth microdilution per CLSI; format: cell-based; settings: Candida albicans, read-out: Minimum Inhibitory Concentrations against Yeast Isolates, Candida albicans;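 also: two read times 24 hr and 48 hr of incubation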
How it was run: (§1)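 CLSI broth microdilution in RPMI/0.165 M MOPS pH 7.0; 2-fold DMSO dilution series; inoculum 0.5 McFarland diluted 1:100; 35° C, ~24-48 hr; MIC = lowest conc. with no visible growth, read from plate bottom.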

Candida glabrata = assay: as above; format: cell-based; settings: Nakaseomyces glabratus, read-out: Minimum Inhibitory Concentrations against Yeast Isolates, Candida glabrata;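 also: two read times 24 hr and 48 hr of incubation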
How it was run: as §1

Candida parapsilosis = assay: as above; format: cell-based; settings: Lodderomyces parapsilosis, read-out: Minimum Inhibitory Concentrations against Yeast Isolates, Candida parapsilosis;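 also: two read times 24 hr and 48 hr of incubation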
How it was run: as §1

C. glabrata = assay: Checkerboard FIC assay in combination with fluconazole (MIC alone and in combination, FICI); format: cell-based, Candida glabrata; settings: for FICI of combination resulting in fluconazole MIC of: 2 ug/mL / FICI of combination resulting in fluconazole MIC of: 4 ug/mL / FICI of combination resulting in fluconazole MIC of: 8 ug/mL: FICI calculated using a fluconazole MIC of 16 μg/mL; for FICI of combination resulting in fluconazole MIC of: 2 ug/mL (value in parenthesis) / FICI of combination resulting in fluconazole MIC of: 4 ug/mL (value in parenthesis) / FICI of combination resulting in fluconazole MIC of: 8 ug/mL (value in parenthesis): FICI using a fluconazole MIC of 128 μg/mL; for MIC: Nakaseomyces glabratus; for Concentration of Methylgene compound to synergize fluconazole MIC to 2 ug/mL / Concentration of Methylgene compound to synergize fluconazole MIC to 4 ug/mL / Concentration of Methylgene compound to synergize fluconazole MIC to 8 ug/mL: in combination with fluconazole; for Concentration of Methylgene compound to synergize fluconazole MIC to 2 ug/mL: fluconazole MIC lowered to 2 ug/mL; for Concentration of Methylgene compound to synergize fluconazole MIC to 4 ug/mL: fluconazole MIC lowered to 4 ug/mL; for Concentration of Methylgene compound to synergize fluconazole MIC to 8 ug/mL: fluconazole MIC lowered to 8 ug/mL; for Multiple of compound MIC to synergize fluconazole MIC to 2 ug/mL / Multiple of compound MIC to synergize fluconazole MIC to 4 ug/mL / Multiple of compound MIC to synergize fluconazole MIC to 8 ug/mL: concentration in combination as multiple of the compound's MIC alone; for Multiple of compound MIC to synergize fluconazole MIC to 2 ug/mL: fluconazole MIC 2 ug/mL; for Multiple of compound MIC to synergize fluconazole MIC to 4 ug/mL: fluconazole MIC 4 ug/mL; for Multiple of compound MIC to synergize fluconazole MIC to 8 ug/mL: fluconazole MIC 8 ug/mL
How it was run: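 A fluconazole synergy checkerboard was run against C. glabrata in MOPS-buffered RPMI (pH 7.0) for about 48 h at 35 °C. Each agent was diluted 2-fold, with one row and one column holding each agent alone for MIC determination. FICI was calculated from these MICs, using a 0.5 McFarland inoculum diluted 1:100 per CLSI.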

[1] = 24 hr reading (first value of cell 24 hr/48 hr)
[2] = 48 hr reading (second value of cell 24 hr/48 hr)
[3] = MIC of the example compound alone against C. glabrata in the checkerboard assay, approximately 48 hr, read-out: Methylgene MIC
[4] = test compound alone, C. glabrata, approx. 48 hr at 35° C., read-out: Compound MIC

Row | Structure (SMILES) | MIC (Candida albicans; [1]) [µg/mL] | MIC (Candida albicans; [2]) [µg/mL] | MIC (Candida glabrata; [1]) [µg/mL] | MIC (Candida glabrata; [2]) [µg/mL] | MIC (Candida parapsilosis; [1]) [µg/mL] | MIC (Candida parapsilosis; [2]) [µg/mL] | FICI of combination resulting in fluconazole MIC of: 2 ug/mL (C. glabrata; C. glabrata) | FICI of combination resulting in fluconazole MIC of: 4 ug/mL (C. glabrata; C. glabrata) | FICI of combination resulting in fluconazole MIC of: 8 ug/mL (C. glabrata; C. glabrata) | FICI of combination resulting in fluconazole MIC of: 2 ug/mL (value in parenthesis) (C. glabrata; C. glabrata) | FICI of combination resulting in fluconazole MIC of: 4 ug/mL (value in parenthesis) (C. glabrata; C. glabrata) | FICI of combination resulting in fluconazole MIC of: 8 ug/mL (value in parenthesis) (C. glabrata; C. glabrata) | MIC (C. glabrata; [3]) [µg/mL] | MIC (C. glabrata; [4]) [µg/mL] | Concentration of Methylgene compound to synergize fluconazole MIC to 2 ug/mL (C. glabrata; C. glabrata) [µg/mL] | Concentration of Methylgene compound to synergize fluconazole MIC to 4 ug/mL (C. glabrata; C. glabrata) [µg/mL] | Concentration of Methylgene compound to synergize fluconazole MIC to 8 ug/mL (C. glabrata; C. glabrata) [µg/mL] | Multiple of compound MIC to synergize fluconazole MIC to 2 ug/mL (C. glabrata) | Multiple of compound MIC to synergize fluconazole MIC to 4 ug/mL (C. glabrata) | Multiple of compound MIC to synergize fluconazole MIC to 8 ug/mL (C. glabrata)
1 | CN1CCN(CCNC(=O)Nc2cccc(CCCCc3ccc(CC(=O)NO)cc3)c2)CC1 [Example 49, N-hydroxy-2-(4-(4-(3-(3-(2-(4-methylpiperazin-1-yl)ethyl)ureido)phenyl)butyl)phenyl)acetamide] | > 64 | > 64 | 16 (≈ 34.2 µM) | > 64 | > 64 | > 64 | 0.188 | 0.250 | 0.313 | 0.141 | 0.156 | 0.125 | > 16 | > 16 | 4 | 4 | 2 | – | – | –
2 | O=C(Cc1ccc(CCCCc2ccc(O)c(O)c2)cc1)NO [Example 19, 2-(4-(4-(3,4-dihydroxyphenyl)butyl)phenyl)-N-hydroxyacetamide] | 16 (≈ 50.7 µM) | 32 (≈ 101 µM) | 1 (≈ 3.17 µM) | 2 (≈ 6.34 µM) | 32 (≈ 101 µM) | 32 (≈ 101 µM) | 0.313 | 0.375 | 0.500 | 0.266 | 0.281 | 0.313 | 2 | 2 | 0.5 | 0.5 | 0.5 | (¼x) | (¼x) | (¼x)
3 | O=C(Cc1csc(CCCCc2ccccc2)n1)NO [Example 1, N-hydroxy-2-(2-(4-phenylbutyl)thiazol-4-yl)acetamide] | 32 (≈ 110 µM) | 32 (≈ 110 µM) | > 64 | > 64 | 32 (≈ 110 µM) | 32 (≈ 110 µM) | 0.625 | 0.500 | 0.625 | 0.516 | 0.281 | 0.188 | 8 | 8 | 4 | 2 | 1 | (½x) | (¼x) | (⅛x)
4 | O=C(Cc1ccc(CCC/C(=N\O)c2ccccc2)cc1)NO [Example 27, (E)-N-hydroxy-2-(4-(4-(hydroxyimino)-4-phenylbutyl)phenyl) acetamide] | 64 (≈ 205 µM) | 64 (≈ 205 µM) | 8 (≈ 25.6 µM) | 16 (≈ 51.2 µM) | > 64 | > 64 | 0.313 | 0.375 | 0.375 | 0.266 | 0.281 | 0.188 | 16 | 16 | 4 | 4 | 2 | (¼x) | (¼x) | (⅛x)
5 | CC(=O)Nc1ccc(CCCCc2ccc(CC(=O)NO)cc2)cc1 [Example 39, 2-(4-(4-(4-acetamidophenyl)butyl)phenyl)-N-hydroxyacetamide] | > 8 | > 8 | > 8 | > 8 | > 8 | > 8 | 0.375 | 0.375 | 0.563 | 0.266 | 0.156 | 0.125 | 16 | 16 | 4 | 2 | 1 | (¼x) | (⅛x) | ( 1/16x)
6 | CN(C)CCSCC(=O)Nc1cccc(CCCCc2ccc(CC(=O)NO)cc2)c1 [Example 44, 2-(2-(dimethylamino)ethylthio)-N-(3-(4-(4-(2-(hydroxyamino)-2-oxoethyl)phenyl)butyl)phenyl)acetamide] | > 64 | > 64 | 16 (≈ 36.1 µM) | 64 (≈ 144 µM) | 64 (≈ 144 µM) | > 64 | 0.188 | 0.250 | 0.313 | 0.141 | 0.156 | 0.125 | > 16 | > 16 | 4 | 4 | 2 | – | – | –
